# Source: patent US20220257698A1, “ANGIOTENSIN TYPE 2 (AT2) RECEPTOR AGONISTS FOR USE IN THE TREATMENT OF CANCER” (LANTHIOPEP B.V., priority 2019, published 2022)
# Assays:
# [1] = system: colon carcinoma PDX model Co9689A; assay: KcAng(1-7) on growth of colon carcinoma PDX Co9689A in mice; assay type: in vivo, NMRI nu/nu mice (human PDX); conditions: for T/C (treated tumor volume as percent of vehicle control): day 28 (day 41 of study)
# Protocol: In vivo studies were conducted at EPO GmbH Berlin. Large studies (FIG. 1A, 2, 3, 4, 5) comprised 3 groups of 10 mice/group and 5 animals as reserve, as outlined in Table 1. Smaller studies (FIG. 1B, 1C, 1D) comprised 2 groups of mice of 3 mice per group. The animals were allocated to the various treatment groups (e.g. 0.2 μg/kg and 30 μg/kg) with a maximum of 10 animals per group. […] The groups received subcutaneous (s.c.) drug injection (for max. 28 days) as outlined in the Table 1.
# NMRI nu/nu mice were used in this study. The animals were female at age of 6 to 8 weeks. The respective PDX tumors were inoculated subcutaneously (s.c.), and the tumors were grown to achieve palpable tumor sizes before start of the respective treatments. The PDX included breast (MaCa4151), colon (Co9689A), head & neck (HN10309), lung (Lu7433) and ovarian (OvCa13329) cancer (Table 2).
# Treatment with KcAng(1-7) was started with palpable tumors after the randomization of animals regarding tumor volume. KcAng(1-7) was applied s.c. by daily injections at […] or 30 μg/kg dose for a maximum of 28 days (or earlier as defined by the humane end point for the study).
# KcAng(1-7) was prepared as follows: The compounds was suspended in sterile PBS resulting in a clear solution. The remains of this formulation were stored at 4° C.
# Tumor growth stimulatory or inhibitory activity of the KcAng(1-7) was evaluated by determination of tumor volumes (TV). During the study, tumor volumes and body weight were measured twice a week, and the ratio of the mean tumor volumes between the compound-treated group and the vehicle-treated group (T/C) was calculated.
# Tumor volume=(tumor width)×(tumor width)×(tumor length)+2
# T/C=T÷C • T: Mean estimated tumor volume of the compound-treated group • C: Mean estimated tumor volume of the vehicle-treated group
# [2] = system: U87MG glioblastoma CDX; assay: Tumor hemoglobin level (indirect angiogenesis) in U87MG CDX; assay type: in vivo, cd1 nu/nu mice (human GBM cell line); conditions: KcAng(1-7) 1 μg/kg/d, Losartan 20 mg/kg/d, or both
# Protocol: Efficacy of treatment was evaluated by: […] Mice with U87MG cell CDX were randomized at day 0. KcAng(1-7) was injected subcutaneously (1 μg/kg) on a daily basis. Losartan was administered intraperitoneal at 20 mg/kg/day. […] In brief, tumors were homogenized in double-distilled water. Eighty microliters of homogenates were mixed with 1 mL of Drabkin's solution and incubated for 15 min at room temperature. After centrifugation at 400×g for 5 min, the supernatants were subjected to absorbance measurement at 540 nm. The absorption, which is proportional to hemoglobin concentration, was divided by tumor weight.
# [3] = Gr. B 0.2 μg/kg/d s.c., Meas. 1
# [4] = Gr. B 0.2 μg/kg/d s.c., Meas. 2
# [5] = Gr. B 0.2 μg/kg/d s.c., Meas. 3
# [6] = Gr. B 0.2 μg/kg/d s.c., Meas. 4
# [7] = Gr. B 0.2 μg/kg/d s.c., Meas. 5
# [8] = Gr. B 0.2 μg/kg/d s.c., Meas. 6
# [9] = Gr. B 0.2 μg/kg/d s.c., Meas. 7
# [10] = Gr. B 0.2 μg/kg/d s.c., Meas. 8
# [11] = Gr. B 0.2 μg/kg/d s.c., Meas. 9 (day 28, day 41 of study)
# [12] = Gr. C 30 μg/kg/d s.c., Meas. 9 (day 28, day 41 of study)
substance,measurement,setting,value
Lys-Asp-Arg-Val-Abu/Ala-Ile-His-Abu/Ala (KDRVAIHA; not fully specified; cyclic thioether (Abu/Ala bridge); VARIANT (5)..(5) /replace=“Abu”; VARIANT (8)..(8) /replace=“Abu”; SITE (1)..(8) /note=“Variant residues given in the sequence have no preference with respect to those in the annotations for variant positions”) [KcAng(1-7)],T/C (treated tumor volume as percent of vehicle control),[1]; 0.2 μg/kg,58%
same,T/C (treated tumor volume as percent of vehicle control),[1]; 30 μg/kg,45%
same,effect on tumor growth,"[1]; 0.2 and 30 μg/kg, 28 days",statistically significant and dose dependent reduction in tumor growth
same,RTV Mean,[1]; [3],1
same,RTV Median,[1]; [3],1
same,T/C,[1]; [3],99.5%
same,Tumor Vol. Mean,[1]; [3],0.093 cm^3
same,Tumor Vol. Median,[1]; [3],0.09 cm^3
same,RTV Mean,[1]; [4],1.2
same,RTV Median,[1]; [4],1.2
same,T/C,[1]; [4],90.3%
same,Tumor Vol. Mean,[1]; [4],0.107 cm^3
same,Tumor Vol. Median,[1]; [4],0.108 cm^3
same,RTV Mean,[1]; [5],1.4
same,RTV Median,[1]; [5],1.4
same,T/C,[1]; [5],87.4%
same,Tumor Vol. Mean,[1]; [5],0.132 cm^3
same,Tumor Vol. Median,[1]; [5],0.126 cm^3
same,RTV Mean,[1]; [6],2
same,RTV Median,[1]; [6],1.9
same,T/C,[1]; [6],87.1%
same,Tumor Vol. Mean,[1]; [6],0.188 cm^3
same,Tumor Vol. Median,[1]; [6],0.139 cm^3
same,RTV Mean,[1]; [7],2.7
same,RTV Median,[1]; [7],2.6
same,T/C,[1]; [7],84.6%
same,Tumor Vol. Mean,[1]; [7],0.252 cm^3
same,Tumor Vol. Median,[1]; [7],0.234 cm^3
same,RTV Mean,[1]; [8],2.8
same,RTV Median,[1]; [8],2.7
same,T/C,[1]; [8],80.7%
same,Tumor Vol. Mean,[1]; [8],0.267 cm^3
same,Tumor Vol. Median,[1]; [8],0.238 cm^3
same,RTV Mean,[1]; [9],3.2
same,RTV Median,[1]; [9],2.8
same,T/C,[1]; [9],71.6%
same,Tumor Vol. Mean,[1]; [9],0.272 cm^3
same,Tumor Vol. Median,[1]; [9],0.214 cm^3
same,RTV Mean,[1]; [10],2
same,RTV Median,[1]; [10],1.9
same,T/C,[1]; [10],58.6%
same,Tumor Vol. Mean,[1]; [10],0.192 cm^3
same,Tumor Vol. Median,[1]; [10],0.178 cm^3
same,RTV Mean,[1]; [11],2.7
same,RTV Median,[1]; [11],2.5
same,T/C,[1]; [11],58.1%
same,Tumor Vol. Mean,[1]; [11],0.257 cm^3
same,Tumor Vol. Median,[1]; [11],0.219 cm^3
same,RTV Mean,"[1]; Gr. C 30 μg/kg/d s.c., Meas. 1",1
same,RTV Median,"[1]; Gr. C 30 μg/kg/d s.c., Meas. 1",1
same,T/C,"[1]; Gr. C 30 μg/kg/d s.c., Meas. 1",99.5%
same,Tumor Vol. Mean,"[1]; Gr. C 30 μg/kg/d s.c., Meas. 1",0.093 cm^3
same,Tumor Vol. Median,"[1]; Gr. C 30 μg/kg/d s.c., Meas. 1",0.097 cm^3
same,RTV Mean,"[1]; Gr. C 30 μg/kg/d s.c., Meas. 2",1.2
same,RTV Median,"[1]; Gr. C 30 μg/kg/d s.c., Meas. 2",1.2
same,T/C,"[1]; Gr. C 30 μg/kg/d s.c., Meas. 2",91.5%
same,Tumor Vol. Mean,"[1]; Gr. C 30 μg/kg/d s.c., Meas. 2",0.108 cm^3
same,Tumor Vol. Median,"[1]; Gr. C 30 μg/kg/d s.c., Meas. 2",0.105 cm^3
same,RTV Mean,"[1]; Gr. C 30 μg/kg/d s.c., Meas. 3",1.3
same,RTV Median,"[1]; Gr. C 30 μg/kg/d s.c., Meas. 3",1.3
same,T/C,"[1]; Gr. C 30 μg/kg/d s.c., Meas. 3",80.9%
same,Tumor Vol. Mean,"[1]; Gr. C 30 μg/kg/d s.c., Meas. 3",0.122 cm^3
same,Tumor Vol. Median,"[1]; Gr. C 30 μg/kg/d s.c., Meas. 3",0.111 cm^3
same,RTV Mean,"[1]; Gr. C 30 μg/kg/d s.c., Meas. 4",1.7
same,RTV Median,"[1]; Gr. C 30 μg/kg/d s.c., Meas. 4",1.5
same,T/C,"[1]; Gr. C 30 μg/kg/d s.c., Meas. 4",72.1%
same,Tumor Vol. Mean,"[1]; Gr. C 30 μg/kg/d s.c., Meas. 4",0.156 cm^3
same,Tumor Vol. Median,"[1]; Gr. C 30 μg/kg/d s.c., Meas. 4",0.125 cm^3
same,RTV Mean,"[1]; Gr. C 30 μg/kg/d s.c., Meas. 5",2.2
same,RTV Median,"[1]; Gr. C 30 μg/kg/d s.c., Meas. 5",2.3
same,T/C,"[1]; Gr. C 30 μg/kg/d s.c., Meas. 5",68.6%
same,Tumor Vol. Mean,"[1]; Gr. C 30 μg/kg/d s.c., Meas. 5",0.205 cm^3
same,Tumor Vol. Median,"[1]; Gr. C 30 μg/kg/d s.c., Meas. 5",0.184 cm^3
same,RTV Mean,"[1]; Gr. C 30 μg/kg/d s.c., Meas. 6",2.5
same,RTV Median,"[1]; Gr. C 30 μg/kg/d s.c., Meas. 6",2.4
same,T/C,"[1]; Gr. C 30 μg/kg/d s.c., Meas. 6",72.5%
same,Tumor Vol. Mean,"[1]; Gr. C 30 μg/kg/d s.c., Meas. 6",0.24 cm^3
same,Tumor Vol. Median,"[1]; Gr. C 30 μg/kg/d s.c., Meas. 6",0.199 cm^3
same,RTV Mean,"[1]; Gr. C 30 μg/kg/d s.c., Meas. 7",3
same,RTV Median,"[1]; Gr. C 30 μg/kg/d s.c., Meas. 7",2.8
same,T/C,"[1]; Gr. C 30 μg/kg/d s.c., Meas. 7",75.6%
same,Tumor Vol. Mean,"[1]; Gr. C 30 μg/kg/d s.c., Meas. 7",0.287 cm^3
same,Tumor Vol. Median,"[1]; Gr. C 30 μg/kg/d s.c., Meas. 7",0.213 cm^3
same,RTV Mean,"[1]; Gr. C 30 μg/kg/d s.c., Meas. 8",2.2
same,RTV Median,"[1]; Gr. C 30 μg/kg/d s.c., Meas. 8",1.9
same,T/C,"[1]; Gr. C 30 μg/kg/d s.c., Meas. 8",63.3%
same,Tumor Vol. Mean,"[1]; Gr. C 30 μg/kg/d s.c., Meas. 8",0.208 cm^3
same,Tumor Vol. Median,"[1]; Gr. C 30 μg/kg/d s.c., Meas. 8",0.155 cm^3
same,RTV Mean,[1]; [12],2.1
same,RTV Median,[1]; [12],1.8
same,T/C,[1]; [12],45.3%
same,Tumor Vol. Mean,[1]; [12],0.201 cm^3
same,Tumor Vol. Median,[1]; [12],0.134 cm^3
same,retarded tumor growth,[1]; colon carcinoma PDX upon treatment as in Example 1,~40%
same,"Tumor hemoglobin level, mean (± SEM)",[2],8.8 ± 1.0 mg hemoglobin/g of tissue
